Experimental data as given in article doi:10.1101/2024.10.17.618876v1 (biorxiv, 2024).

Target: T1, human lysozyme (HL) (Homo sapiens, UniProt P61626)
T1 sequence (P61626 19-148): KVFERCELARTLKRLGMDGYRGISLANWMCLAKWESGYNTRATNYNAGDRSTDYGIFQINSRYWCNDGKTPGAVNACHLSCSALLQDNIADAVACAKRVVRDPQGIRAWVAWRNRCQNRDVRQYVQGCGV
Assay: isothermal titration calorimetry
Format: binding

Kd: 1550 nM
Structure (SMILES): N=C(N)c1ccccc1 [benzamidine]
